Here are results for eleven compounds from ChEMBL document CHEMBL1201862, “PubChem BioAssay data set” (2004).

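Cells were grown in 96-well plates and exposed to each compound for 48 hours at five concentrations; endpoints were interpolated linearly between bracketing concentrations, or set to the highest concentration if not reached. Here, GI50 denotes the concentration required for 50% inhibition of growth.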 Active and inactive are the calls of the source. No stated cut-off is given here; in the data, active = GI50 up to about 1.1 µM and inactive = higher.

Common to all, as to assay: DTP human tumour cell line panel, 48 h
Test [1] deals with SF-268.
In test [2] the test system is 786-0.
Test [3] concerns HCT-15.
The subject of test [4] is SN12C.
In test [5] the test system is SK-MEL-2.
Test [6] deals with HL-60.
Test [7] concerns CCRF-CEM.
Test [8] has as its system IGROV-1.
Test [9] has as its system KM12.
Test [10] has as its system SF-295.
Test [11] has as its system RXF 393.
Test [12] deals with A498.
In test [13] the test system is COLO 205.
Test [14] relates to NCI-H460.
The test system of test [15] is LOX IMVI.
Test [16] has as its system UACC-62.
The subject of test [17] is SK-OV-3.
Test [18] relates to HCT-116.
Test [19] concerns HT-29.
Test [20] concerns NCI-H522.

What is called GI50 is the concentration that inhibits growth by half. Regarding `CC(=NNC(=S)Nc1ccccc1C)c1cccc(C(C)=NNC(=S)Nc2ccccc2C)n1`, the GI50 was 5.81 µM (inactive) in test [1]; 4.13 µM (inactive) in test [2]; 8.63 µM in test [3]; 44.6 µM (inactive) in test [4]; 74.3 µM (inactive) in test [5]; 19.7 µM (inactive) in [6]. In addition, the GI50 in test [7] was 3.59 µM (inactive); in test [8], 26.3 µM (inactive); in [9], 24 µM (inactive); in test [10], 8.93 µM (inactive); in [11], 13.4 µM (inactive); in test [12] it was > 100 µM (inactive). Besides, the GI50 in test [13] was 10.9 µM (inactive); in test [14], 15.3 µM (inactive); in [15], 6.9 µM (inactive); in test [16], 45.1 µM (inactive); in test [17], > 100 µM (inactive); in [18] it was 18.4 µM (inactive). The GI50 in test [19] was 39 µM (inactive).

Turning to `COc1ccc2nc3c([N+](=O)[O-])ccc(NCCN(C)C)c3c(N)c2c1`, the GI50 in test [1] is 1.34 µM (inactive); in [2], 1.18 µM (inactive); in [3] it was 1.16 µM; in [4], 1.33 µM (inactive); in [5] it was 2.37 µM (inactive); in test [6] it was 0.194 µM (active). The GI50 was 0.17 µM (active) in test [7]; 1.15 µM (inactive) in [8]; 0.469 µM (active) in test [9]; 1.75 µM (inactive) in [10]; 1.57 µM (inactive) in test [11]; 2.07 µM (inactive) in [12]. The GI50 in [13] was 0.859 µM (active); in [14] it was 1.47 µM (inactive); in test [15], 0.537 µM (active); in test [16], 1.82 µM (inactive); in test [17] it was 1.61 µM (inactive); in [18] it was 0.145 µM (active). In addition, the GI50 in [19] is 0.508 µM (active).

Turning to `COC(=O)[C@]1(C)CCC[C@@]2(C)C1CCC1=CC3(C(C)C)CCC12OO3` (stereo partly drawn), the GI50 is > 100 µM (inactive) in [1]; 85.3 µM (inactive) in test [2]; 40 µM in test [3]; 43.2 µM (inactive) in test [4]; 46.9 µM (inactive) in test [5]; 15.9 µM (inactive) in test [6]. The GI50 is 31.2 µM (inactive) in test [7]; 40.5 µM (inactive) in [20]; > 100 µM (inactive) in [8]; > 100 µM (inactive) in test [9]; 46.5 µM (inactive) in [10]; 18.7 µM (inactive) in test [12]. The GI50 in [13] was > 100 µM (inactive); in test [14], 58.6 µM (inactive); in test [15], 81.1 µM (inactive); in test [16], 57 µM (inactive); in test [17], > 100 µM (inactive); in test [18], 42 µM (inactive). The GI50 in test [19] is 34.4 µM (inactive).

With `CC(=O)/C(=C/NC(=S)Nc1ccc(Cl)c(Cl)c1)C(=O)Nc1ccccc1C`, the GI50 in test [1] is 34.5 µM (inactive); in [2] it was 35 µM (inactive); in test [3], 29.6 µM; in test [4] it was 35.7 µM (inactive); in test [5], 28 µM (inactive); in test [6] it was 17.1 µM (inactive). Besides, the GI50 in [8] was 27.4 µM (inactive); in test [9], 24.9 µM (inactive); in test [10], 32 µM (inactive); in [11] it was 29.4 µM (inactive); in [12], 26.2 µM (inactive); in [13], 28.2 µM (inactive). Further, the GI50 in [14] was 38.5 µM (inactive); in test [15], 34 µM (inactive); in test [16], 19 µM (inactive); in test [17], 30.9 µM (inactive); in [18], 33.7 µM (inactive); in [19] it was 22.3 µM (inactive).

On to `N#C/C(=C1/c2cc([N+](=O)[O-])ccc2-c2c1cc([N+](=O)[O-])cc2[N+](=O)[O-])N1CCCCC1`, for which the GI50 in test [1] is > 100 µM (inactive); in test [2] it was 39.2 µM (inactive); in test [3] it was over 100 µM; in test [4], > 100 µM (inactive); in test [5], > 100 µM (inactive); in test [7], > 100 µM (inactive). In addition, the GI50 in test [20] was 46.6 µM (inactive); in [8], 49.5 µM (inactive); in test [9], > 100 µM (inactive); in test [10], > 100 µM (inactive); in test [11], 34.6 µM (inactive); in [12], > 100 µM (inactive). Moreover, the GI50 in [13] is > 100 µM (inactive); in test [16] it was 68.4 µM (inactive); in test [17], 93.1 µM (inactive); in [18], 27.3 µM (inactive); in test [19], > 100 µM (inactive).

With `Cc1cc2nc3c(C#N)c4c(c(Nc5ccc(Cl)cc5)n3c2cc1C)CCC4`, the GI50 is 18.4 µM (inactive) in test [1]; 15.9 µM (inactive) in [2]; 18.8 µM in test [3]; 19.4 µM (inactive) in test [4]; 13.6 µM (inactive) in test [20]; 32.9 µM (inactive) in test [9]. Also, the GI50 in [10] was > 100 µM (inactive); in [11], 17.3 µM (inactive); in test [12], > 100 µM (inactive); in test [13], 25.2 µM (inactive); in [15], 18.7 µM (inactive); in [17], > 100 µM (inactive). For the same compound, the GI50 was 16.7 µM (inactive) in test [18] and 18.1 µM (inactive) in [19].

Consider `CC1=C(C(=O)O)N2C(=O)[C@@H](NC(=O)C(c3ccc(O)cc3)N3CSC(=S)N(C(C)C)C3)C2SC1` (stereo partly drawn), for which the GI50 in test [1] was > 100 µM (inactive); in test [2], > 100 µM (inactive); in [3] it was over 100 µM; in test [4] it was > 100 µM (inactive); in test [5], > 100 µM (inactive); in test [6], > 100 µM (inactive). The GI50 was 63.8 µM (inactive) in test [7]; 50.1 µM (inactive) in test [20]; > 100 µM (inactive) in test [8]; > 100 µM (inactive) in test [9]; > 100 µM (inactive) in test [10]; > 100 µM (inactive) in test [12]. Also, the GI50 in [13] is 97.7 µM (inactive); in [14] it was > 100 µM (inactive); in test [15], > 100 µM (inactive); in [16], > 100 µM (inactive); in test [17] it was > 100 µM (inactive); in [18], > 100 µM (inactive). Moreover, the GI50 in [19] is > 100 µM (inactive).

As to `Sc1ncnc2c1ncn2Cc1ccco1`, the GI50 in [1] was > 100 µM (inactive); in [2] it was > 100 µM (inactive); in test [3] it was over 100 µM; in [4], > 100 µM (inactive); in test [5], > 100 µM (inactive); in test [20], > 100 µM (inactive). The GI50 in test [8], in test [9], in test [10], in test [11], in test [12] and in test [13] was > 100 µM (inactive) each time. Also, the GI50 in [14], in test [15], in test [16], in test [17], in test [18] and in [19] was > 100 µM (inactive) each time.

As for `O=C(O)c1nc(-c2ccc(Cl)c(Cl)c2)nc2ccc(Cl)cc12`, the GI50 was 63 µM (inactive) in test [1]; 48.4 µM (inactive) in test [2]; over 100 µM in test [3]; > 100 µM (inactive) in test [4]; 78 µM (inactive) in test [5]; 16.6 µM (inactive) in [6]. The GI50 was > 10 µM (inactive) in [7]; 51.5 µM (inactive) in test [8]; > 100 µM (inactive) in test [9]; 45.9 µM (inactive) in [10]; 28.3 µM (inactive) in test [11]; > 100 µM (inactive) in test [12]. The GI50 in test [13] is > 100 µM (inactive); in test [14], > 100 µM (inactive); in test [16], > 100 µM (inactive); in test [17], 17.8 µM (inactive); in [18], 66.7 µM (inactive); in [19], > 100 µM (inactive).

For `CC(=O)OC1COC(N2CCc3ccccc32)C(OC(C)=O)C1OC(C)=O` (stereo not drawn), the GI50 was > 100 µM (inactive) in test [1]; > 100 µM (inactive) in [2]; over 100 µM in test [3]; > 100 µM (inactive) in test [4]; > 100 µM (inactive) in [5]; > 100 µM (inactive) in test [7]. Also, the GI50 in test [20], in test [8], in [9], in test [10], in test [11] and in [12] was > 100 µM (inactive) in each case. The GI50 in test [13] is > 100 µM (inactive); in [14], > 100 µM (inactive); in test [15] it was > 100 µM (inactive); in [16], > 94.6 µM (inactive); in test [17] it was > 100 µM (inactive); in test [18], > 100 µM (inactive). Also, the GI50 in [19] was > 100 µM (inactive).

On to `O=C(c1ccccc1)c1cccc(C(=O)c2ccccc2)c1`, for which the GI50 in test [1] is > 100 µM (inactive); in [2], > 100 µM (inactive); in test [4], > 100 µM (inactive); in test [5], > 100 µM (inactive); in [7], 63.8 µM (inactive); in [20] it was > 100 µM (inactive). Also, the GI50 in test [8] is > 100 µM (inactive); in test [9], 44.1 µM (inactive); in test [10], > 100 µM (inactive); in test [11] it was 76.4 µM (inactive); in test [12], > 100 µM (inactive); in test [13] it was > 100 µM (inactive). Also, the GI50 is > 100 µM (inactive) in [14]; 33 µM (inactive) in [15]; > 100 µM (inactive) in [16]; > 100 µM (inactive) in test [17]; > 100 µM (inactive) in test [18]; > 100 µM (inactive) in [19].
